Experimental data: US9689040B2, “Selective inhibitors of tumor-initiating cells” (Children's Medical Center Corporation, priority 2011, dated 2017)

Tests used:
[1] = target: proteasome (Homo sapiens, UniProt P28074); experiment: Proteasome activity in BPLER and HMLER cells (ProteaGlo assay); settings: 6 hr after treatment
[2] = test system: Noxa, PARP1; experiment: Immunoblot of Noxa induction and PARP cleavage in breast cell lines; format: cell-based, human; settings: for Noxa protein induction: 12.5 nM, 24 hours
Description: Immunoblot was performed as described^41. Primary antibodies were as follows: cleaved Caspase 3 (Cell Signaling, rabbit polyclonal, 1:1000), PARP1 (Santa Cruz, rabbit polyclonal, 1:500), MCL1 (Cell Signaling, Rabbit polyclonal, 1:1000), Bim (Santa Cruz, rabbit polyclonal, 1:500), Bik (Cell Signaling, rabbit polyclonal, 1:1000), Puma (Cell Signaling, rabbit polyclonal, 1:1000), Noxa (Calbiochem, mouse monoclonal, 1:500), Bid (Santa Cruz, rabbit polyclonal, 1:500), Bad (Santa Cruz, rabbit polyclonal, 1:500). Antibodies were diluted in 5% milk in TBS-T and incubated O.N. at 4° C. Secondary mouse and rabbit HRP-conjugated antibodies were from Amersham. Protein signal was detected using the ECL Plus kit (Amersham). For flow cytometry, cells were stained as previously described^33, using the following fluorescent-conjugated antibodies: CD44 (BD Biosciences), CD24 (BD Biosciences), CD326 (ESA, Biolegend), Annexin V (Invitrogen). For immunofluorescence microscopy, cells were fixed in 2% PFA for 10 min, permeabilized with 1% Triton X in PBS for 5 min, and incubated with primary antibodies in 0.5% Triton X, 1% FBS in PBS for 30 min at RT. Antibodies were: CK18 (Santa Cruz, mouse monoclonal, 1:100) and CK14 (Millipore, mouse monoclonal, 1:100). After washing the cells were stained sequentially with AlexaFluor647-conjugated secondary antibody (Invitrogen, 1:200) and DAPI (Sigma, 1:5000). For immunohistochemistry, BPLER tumor sections were prepared from paraffin-embedded tissues, deparaffinized and treated with 10% citrate buffer for 15 min.

[3] = test system: epithelial TNBC / basal-like cells (MB-468, HCC-1143, HCC-1937, 4T1-E); experiment: cells; settings: 24 h, read-out: decrease of cell viability
[4] = test system: MB-468 tumors; experiment: MB-468 tumor-bearing mice; format: in vivo, mouse; settings: intratumoral or intravenous regimen, 45 days
Description: Mean tumor volume in MB-468 tumor-bearing mice upon intratumoral infusion of bortezomib (0.8 mg/kg) or DMSO q3d.
Treatment was started once mice developed palpable tumors.

[5] = test system: BPLER cells; experiment: Cell viability after drug treatment (CellTiterGlo / Trypan-Blue); format: cell-based, human
[6] = test system: unselected breast cancer patients; settings: eight phase I/II studies, chemotherapy combination regimens with bortezomib; cited from earlier work
[7] = test system: BPLER tumors; experiment: BPLER tumor xenografts in Nu/J mice (tumor volume, tumor weight); format: in vivo, mouse
Description: We first assessed the effect of bortezomib on pre-established subcutaneous BPLER xenografts in nude mice. […] To reduce experimental variability, we selected mice bearing tumors of homogenous size (˜[…] in diameter after 3 weeks from injection), which were randomized into two groups. Each group received 6 doses of either vehicle (DMSO) or bortezomib at 0.5 mg/kg i.p. q3d over a 16-day period, respectively. At the end of the treatment period, mice were sacrificed and tumor weight was assessed.
Bortezomib is already in the clinic for treatment of multiple myeloma and other lymphomas. To start investigating potential clinical efficacy in TNBC, BPLER tumor-bearing mice were given 1 dose (0.8 mg/kg) of bortezomib intratumorally (i.t.), intraperitoneally (i.p) or intravenously (i.v.) and proteasome activity in the tumor was assessed after 18 hours (FIG. 6A). […] To assess therapeutic efficacy, we administered bortezomib every 3 days (0.8 mg/kg i.t.) or weekly (1.6 mg/kg i.v.) after BPLER tumors, implanted in the flank of Nu/J mice, became palpable. BPLER tumor outgrowth was assessed by tumor volume during the treatment period and by tumor weight at the time of sacrifice.
All animal procedures were performed with IACUC approval. Exponentially growing cells were trypsinized with TRYPLE EXPRESS (Invitrogen), resuspended in a 1:1 WIT-Matrigel solution at the indicated numbers, and injected subcutaneously in the flank of 4-week old female Nu/J mice (Stock #002019, Jackson Laboratories). […] Mice were sacrificed 16 days after beginning treatment and tumor weight was assessed.

[8] = test system: mouse TNBC primary tumor fragments; experiment: Primary TNBC tumor fragments from TP53 heterozygous Balb/c mice implanted in mammary fat-pad (V22 tumors); format: in vivo; settings: 1.6 mg/kg weekly i.v. infusion
Description: (6A) Proteasome activity in protein lysates from BPLER tumors 18 hours after intratumoral (i.t.), intraperithoneal (i.p) or intravenous (i.v.) treatment with bortezomib at the indicated dose, as determined by ProteasomeGlo assay. Proteasome activity in BPLER treated with bortezomib in vitro is shown as control. (6B-6E) Mean tumor volume (6B, 6D) in BPLER tumor-bearing mice after treatment with bortezomib or DMSO at the indicated dose, schedule and route of administration. Median tumor weight was measured at time of sacrifice (6C, 6E). […] (6F) Immunoblot analysis of protein lysates from BPLER tumors 18 hours after 1 intravenous dose of bortezomib at 1.6 mg/kg bortezomib or DMSO, showing efficient Noxa induction and caspase-3 and PARP1 cleavage after bortezomib treatment. (6G) Mean tumor volume in MB-468 tumor-bearing mice after intravenous treatment with 1.6 mg/kg bortezomib weekly. (6H) Schematic diagram illustrating generation of mouse TNBC primary tumor fragments for bortezomib-based therapy studies. […] 4T1-E tumors are shown as control. (6I, 6J) Mean V22 tumor volume (6I) after weekly intravenous infusion of bortezomib (1.6 mg/kg) or DMSO. Treatment was started 2 days after implantation of primary tumor fragments. […] The top and the bottom of each box represent the 75th and 25th percentile of tumor weight, respectively. […]

[9] = test system: mesenchymal MDA-MB-231 and MDA-MB-436 cells; experiment: cells; settings: Homo sapiens, 24 h, read-out: decrease of cell viability

proteasome, sequence (P28074 60-263): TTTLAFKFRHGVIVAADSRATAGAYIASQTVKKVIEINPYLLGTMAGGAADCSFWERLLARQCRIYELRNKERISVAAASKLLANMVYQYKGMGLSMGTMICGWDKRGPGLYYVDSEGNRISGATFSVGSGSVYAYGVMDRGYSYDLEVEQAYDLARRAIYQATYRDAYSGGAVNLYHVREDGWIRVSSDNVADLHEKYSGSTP

CC(C)C[C@H](NC(=O)[C@H](Cc1ccccc1)NC(=O)c1cnccn1)B(O)O [bortezomib]
proteasomal activity in BPLER and HMLER [1]: similarly inhibited proteasome activity | Noxa protein induction ([2]; BPE, MCF7 and T47D): only weakly | Noxa protein level ([2]; BPLER cells): highly increased | PARP cleavage ([2]; HCC1143 and HCC1937 cells): induced PARP cleavage | PARP cleavage ([2]; MCF7 or MDA-MB-436 cells): not in MCF7 or MDA-MB-436 cells | Noxa protein induction ([2]; all TNBC cell lines tested): strongly induced Noxa protein | cytotoxicity at 0.0125 µM [3]: 50 to 65% | tumors smaller compared to control mice [4]: at least 6 fold | sensitivity of BPLER relative to HMLER cells (viability) ([5]; increasing doses, 24 hr): more sensitive | response of BPLER cells at confluence ([5]; non-dividing (confluent) cells): became resistant | partial response rates [6]: 10-20% | reduction of median tumor weight ([7]; 0.5 mg/kg i.p. q3d, 6 doses, after 16 days): 54% | tumors smaller than in control mice (tumor volume, average) ([7]; 0.8 mg/kg i.t. every 3 days): 85% | tumors weighed less than in control mice (average) ([7]; 0.8 mg/kg i.t. every 3 days): 91% | tumors smaller than in control mice (tumor volume, average) ([7]; 1.6 mg/kg i.v. weekly): 59% | tumors weighed less than in control mice (average) ([7]; 1.6 mg/kg i.v. weekly): 63% | Noxa induction and caspase 3 cleavage in tumors ([7]; immunohistochemistry and western blot): induced Noxa induction and caspase 3 cleavage in vivo | secondary tumors smaller compared to control mice [8]: ~90% | secondary tumors weighed less compared to control mice [8]: ~80% | cytotoxicity at 0.0125 µM [9]: 20 to 25%
